What was measured:
Wnt signaling = assay: Canonical Wnt signaling in HUVECs (immunoblotting, β-catenin immunofluorescence); assay type: cell-based, human
Protocol: FIG. 12 is a panel with a schematic, pictures showing that Dand5 reduces canonical Wnt signaling in HUVECs. HUVECs were plated to confluence and received a 2 h scratch in the presence or absence of Dand5 ([…]) or IWR1 (3 μM). β-catenin (green) localization was examined by immunofluorescence with phalloidin and DAPI (nuclei) to identify the cell boundaries and nucleus. […] Scale bars, […]).
Cells were washed with cold PBS and extracted in Laemmli's buffer, followed by sonication. Samples were run on SDS-PAGE gels and transferred onto nitrocellulose membranes. Membranes were blocked with 5% Bovine Serum Albumin (BSA) and probed with primary antibodies overnight at 4° C.: beta-Catenin (Cell Signaling Technology), phospho-beta-catenin (Cell Signaling Technology), Axin2 (Cell Signaling Technology), beta-Actin (Santa Cruz Technologies). HRP-conjugated secondary antibodies (Vector Laboratories) were used to detect primary antibodies.
We next evaluated the molecular mechanisms underlying the effects of DAND5 on endothelial cells. […] Wnt signaling regulates fundamental aspects of vascular development, including cell fate specification, proliferation and survival. […] HUVECs were treated for up to 24 hours with DAND5 or IWR-1, an inhibitor of Wnt canonical signaling. Protein extracts were harvested and subjected to immunoblotting against downstream effectors of Wnt signaling. […] The levels of β-catenin at different subcellular localizations are regulated by a variety of processes including site-specific phosphorylation of β-catenin. In the absence of an active Wnt signaling, β-catenin localization at cellular junctions is reduced and cytoplasmic β-catenin associates with the destruction complex (6).

geographic atrophy (GA) = settings: in vivo; cited from earlier work
mouse choroidal explants = assay: Choroidal explant sprouting in culture; assay type: cell-based; settings: mouse choroidal explants, DAND5 plus NAC
Protocol: FIG. 1 is a panel with pictures, bar graphs, and graphs showing that Dand5 reduces VEGF-mediated sprouting angiogenesis in cultured endothelial cells. FIG. 1A: HUVECs grown in a fibrinogen gel were treated with VEGF to induce tube formation in the presence or absence of Dand5. […] FIG. 1B: HUVECs were plated to confluency and scratched to stimulate a wound in the presence or absence of Dand5. Scale bar, 100 μm. FIG. 1C: Quantification of tube formation in FIG. 1A n=3, *p<0.05, **p<0.01). FIG. 1E: Choroids were isolated from wild-type mice and cultured in vitro in the absence or presence of Dand5. […] FIG. 1F: Quantification of sprouting areas in choroidal sprouts (n=3, ***p<0.0001). […] FIG. 1H: HUVECs were cultured in the presence or absence of Dand5 and analyzed by immunofluorescence using antibodies against phospho-Histone 3 (PH3), a marker of cellular mitosis, and phalloidin and DAPI (nuclei). […] FIG. 1I: Quantification immunofluorescent staining of phospho-histone 3 positive cells. […] FIG. 1K: Quantification of immunofluorescent staining of cleaved caspase 3 (n=2, n.s.).
To evaluate the cellular mechanisms underlying the inhibitory effects of DAND5 on endothelial cells sprouting, we assessed the effects of DAND5 on endothelial cell migration and proliferation. […]
We exposed or not HUVECs to recombinant DAND5 and measured the concentration of free radicals using DCFDA and MitoSoxRed™. […]

HUVECs = assay: Free radicals / ROS in HUVECs (DCFDA, MitoSoxRed); assay type: cell-based, human; settings: HUVECs treated with DAND5 plus NAC
Protocol: FIG. 8 is a panel with graphs and pictures showing that Dand5 induces mitochondrial oxidative stress and alters ATP levels in HUVECs. FIG. 8A: HUVEC cells were treated with Dand5 in the presence or not of N-acetylcysteine (NAC) for up to 48 hours. Cells were then incubated with H2DCFDA. Hydrogen peroxide treated cells (H2O2) were included as a positive control. Fluorescence was measured at Ex: 485 nm and Em: 535 nm in a plate reader. Relative Fluorescence Units (RFU) were generated by normalizing the reading of each well to Hoescht staining (n=3,*p<0.05 **p<0.001). FIG. 8B: HUVEC cells were treated with Dand5 in for up to 48 hours. Cells were incubated with MitoSox Red. 3-nitro-proprionic acid (3-NP) treated cells were also examined as a positive control. Fluorescence was measured at Ex: 544 nm and Em: 590 nm. Relative Fluorescence Units (RFU) were generated by normalizing the reading of each well to Hoescht staining (n=3,*p<0.05). FIG. 8C: Primary culture of choroidal sprouts were treated with Dand5 in the absence or presence of NAC. FIG. 8D: Quantification of sprouting area by Image J. FIG. 8E: The ratio of NAD+ to NADH in whole cell extracts was determined using an Alcohol Dehydrogenase/Malate Dehydrogenase enzymatic cycling assay. Cells treated to hypoxic conditions (4% O2 for 3 hours) were included as a positive control (n=3,*p<0.05, **p<0.01). Likewise, glucose uptake was reduced in Dand5-treated HUVECs after 1 hour, while lactate levels were increased (lower panel). FIG. 8F: ATP levels were reduced in HUVECs exposed to Dand5 at 1, 6 and 24 hours (n=3,*p=0.05).
We exposed or not HUVECs to recombinant DAND5 and measured the concentration of free radicals using DCFDA and MitoSoxRed™. […] To further test this, we measure the NAD+/NADH ratio in cells treated or not with DAND5. […] Likewise, glucose uptake was reduced and lactate levels were increased in DAND5-treated HUVECs after 1 h (FIG. 8E, lower panel).

Wnt-induced angiogenesis = assay: Wnt1 and DAND5 co-injection during retinal vascular development (P1 to P5); assay type: in vivo, mouse
Protocol: FIG. 13 is a panel with pictures and graphs showing that Dand5 opposes Wnt1-mediated hypervascularization during retinal vascular development. FIG. 13A: Schematic representation of experimental design. C57B6 pups were injected at P1 with PBS, Dand5 (60 ng/mL), Wnt1, or Wnt1 and Dand5 together at various molar ratios (1N, 5N and 10N). FIG. 13B: Representative images of retinas treated with PBS, Dand5 (1N) or Wnt1 (1N). FIG. 13C: Representative images of retinas treated with PBS or with Wnt1 (5N and 10N) alone or in combination with Danb5. Dand5 Flatmounts retinas were stained with Isolectin B4 to visualize the vasculature. FIG. 13D: Quantification of vascular branches in treated eyes. […] To address the antagonism of DAND5 on Wnt-induced angiogenesis, retinas were injected with recombinant DAND5 (60 ng) with increasing concentrations of Wnt1 (0, 1, 5 or 10× molar ratio) at P1 and retinas were harvested at P5 (FIG. 13A).

[1] = HUVECs treated for up to 24 hours, immunoblotting

In the case of `O=C(Nc1cccc2cccnc12)c1ccc(N2C(=O)[C@@H]3[C@H](C2=O)[C@@H]2C=C[C@H]3C2)cc1` [IWR-1, reference compound], the “levels of Axin2” value (Wnt signaling; [1]) is reported as “increased levels of Axin2”, the “levels of phosphorylated beta-catenin” value (Wnt signaling; [1]) is reported as “increased levels of phosphorylated beta-catenin” and the “levels of total beta-catenin” value (Wnt signaling; [1]) is reported as “decreased levels of total beta-catenin”. For the same molecule, the “cytoplasmic β-catenin” value (Wnt signaling; confluent HUVECs, 2 h scratch, Dand5 60n/mL or IWR1 3 μM) was “increased cytoplasmic β-catenin”.

In the case of bevacizumab: VEGF inhibitor, the “risk of geographic atrophy (GA) progression” value (geographic atrophy (GA)) is given as “increased risks of geographic atrophy (GA) progression”.

For `CC(=O)N[C@@H](CS)C(=O)O` [NAC, N-acetyl cystein, reference compound], the “growth of DAND5-treated choroidal explants when also treated with NAC” value (mouse choroidal explants) was “partially rescued” and the “reversal of DAND5-induced free radical elevation” value (HUVECs) was “could be overcome by exposing cells to N-acetyl cystein (NAC)”.

For ranibizumab: VEGF inhibitor, the “risk of geographic atrophy (GA) progression” value (geographic atrophy (GA)) is listed as “increased risks of geographic atrophy (GA) progression”.

B1: Wnt1: Wnt1 injected into mouse retinas, alone or with DAND5, at increasing molar ratios (protein, UniProt P04426 28-370, looked up)
Proto-oncogene Wnt-1: ANSSGRWWGIVNIASSTNLLTDSKSLQLVLEPSLQLLSRKQRRLIRQNPGILHSVSGGLQSAVRECKWQFRNRRWNCPTAPGPHLFGKIVNRGCRETAFIFAITSAGVTHSVARSCSEGSIESCTCDYRRRGPGGPDWHWGGCSDNIDFGRLFGREFVDSGEKGRDLRFLMNLHNNEAGRTTVFSEMRQECKCHGMSGSCTVRTCWMRLPTLRAVGDVLRDRFDGASRVLYGNRGSNRASRAELLRLEPEDPAHKPPSPHDLVYFEKSPNFCTYSGRLGTAGTAGRACNSSSPALDGCELLCCGRGHRTRTQRVTERCNCTFHWCCHVSCRNCTHTRVLHECL
With B1 the retinal vascular density (Wnt-induced angiogenesis; Wnt1 injected at P1, retinas at P5, IsoB4 staining) was “retinal vascular density was increased”, the “retinal vascularization at 16.6 and 33.3 pmoles” value (Wnt-induced angiogenesis; Wnt1 injections of 16.6 and 33.3 pmoles, P1 to P5) was “significant hypervascularization” and the “rescue of the inhibitory effects of DAND5 on retinal angiogenesis” value (Wnt-induced angiogenesis; concomitant injection of DAND5 (60 ng) with Wnt1 (10 molar ratio)) was “partially rescued the inhibitory effects of DAND5 on retinal angiogenesis”. The “mutual antagonism on vascular branches” value (Wnt-induced angiogenesis; quantification of vascular branches in treated eyes) was “mutually antagonist activities”.

From patent US20220265772A1, “USES OF DAN FAMILY BMP ANTAGONISTS FOR INHIBITING OCULAR NEOVASCULARIZATION AND TREATING OCULAR CONDITIONS” (9636137 Canada Inc., priority 2019, published 2022)
